Our source for the IC50, EC50 and ED50 values is ChEMBL document CHEMBL1138336, “Design and synthesis of novel and potent amide linked PPARgamma/delta dual agonists” (Bioorg Med Chem Lett, 2007).

Assay [1] deals with T1, Peroxisome proliferator-activated receptor alpha (Homo sapiens, UniProt Q07869).
T1 sequence (Q07869 whole entry): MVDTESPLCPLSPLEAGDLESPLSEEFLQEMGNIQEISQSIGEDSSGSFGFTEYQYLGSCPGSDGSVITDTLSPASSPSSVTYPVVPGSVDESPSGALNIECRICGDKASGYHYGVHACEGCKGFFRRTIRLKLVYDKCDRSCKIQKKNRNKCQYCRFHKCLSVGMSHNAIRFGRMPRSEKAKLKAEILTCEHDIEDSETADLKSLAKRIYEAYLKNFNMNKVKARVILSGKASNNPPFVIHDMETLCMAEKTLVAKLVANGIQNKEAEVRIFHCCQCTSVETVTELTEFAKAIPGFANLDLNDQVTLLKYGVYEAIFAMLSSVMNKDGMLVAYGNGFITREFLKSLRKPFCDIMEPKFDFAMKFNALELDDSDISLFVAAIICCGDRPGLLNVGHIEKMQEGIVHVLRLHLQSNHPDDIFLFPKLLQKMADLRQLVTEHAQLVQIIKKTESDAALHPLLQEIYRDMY

For assay [2], the target named is T1, Peroxisome proliferator-activated receptor alpha. This is another data set of the same source.
Assay [3] is filed under the species Rattus norvegicus. The assay can be described thus: animal or person. It is filed as functional. Particulars: ZDF, po, 168 h.
The target of assay [4] is T2, Peroxisome proliferator-activated receptor delta (Homo sapiens, UniProt Q03181).
T2 sequence (Q03181 whole entry): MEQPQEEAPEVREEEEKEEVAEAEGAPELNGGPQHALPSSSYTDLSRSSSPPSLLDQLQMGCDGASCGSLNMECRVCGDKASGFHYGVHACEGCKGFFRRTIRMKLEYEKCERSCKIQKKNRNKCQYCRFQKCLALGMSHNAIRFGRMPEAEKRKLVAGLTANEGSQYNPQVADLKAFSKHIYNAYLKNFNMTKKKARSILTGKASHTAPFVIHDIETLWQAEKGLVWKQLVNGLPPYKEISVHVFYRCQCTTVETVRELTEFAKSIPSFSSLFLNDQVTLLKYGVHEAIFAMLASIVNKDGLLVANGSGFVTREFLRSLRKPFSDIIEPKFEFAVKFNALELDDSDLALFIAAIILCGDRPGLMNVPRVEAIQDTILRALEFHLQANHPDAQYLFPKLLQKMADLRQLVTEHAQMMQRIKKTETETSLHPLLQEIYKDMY

Assay [5] deals with T2, Peroxisome proliferator-activated receptor delta. The source holds these as a separate data set.

`CCc1cc(Oc2cc(F)cc([C@@H](C)NC(=O)c3c(C)c4cc(Cl)ccc4n3C)c2)ccc1CCC(=O)O` yielded an IC50 in assay [1] of 10300 nM. The same compound came in with an EC50 in assay [2] of 2820 nM. The compound further returned a 50% effective dose (ED50) in assay [3] of 0.82 mg/kg.
Turning to `Cc1cc(Oc2cccc(CNC(=O)c3ccc(C(F)(F)F)cc3C)c2)ccc1CCC(=O)O`, the results for the IC50 in assay [1] and in assay [4] were greater than 10000 nM and 5 nM, respectively. For the same compound, the concentration giving a half-maximal response (EC50) is 2890 nM in assay [2] and 33 nM in assay [5].
Compound `CCc1cc(Oc2cc(F)cc([C@@H](C)NC(=O)c3sc4ccc(Cl)cc4c3C)c2)ccc1CCC(=O)O` gave a 50% inhibitory concentration (IC50) in assay [1] of 9340 nM.
As to `Cc1cc(Oc2cccc(CNC(=O)c3c(C)c4cc(Cl)ccc4n3C)c2)ccc1CCC(=O)O`, the half-inhibitory concentration (IC50) is greater than 10000 nM in assay [1] and 3 nM in assay [4]. The concentration for a half-maximal effect (EC50) is 2650 nM in assay [2] and 4 nM in assay [5].
Turning to `Cc1cc(Oc2cccc(CNC(=O)c3cc4cc(Cl)ccc4n3C)c2)ccc1CCC(=O)O`, the half-inhibitory concentration (IC50) was greater than 10000 nM in assay [1] and 3 nM in assay [4]. Also, the results for the EC50 in assay [2] and in assay [5] were 2740 nM and 87 nM, respectively.

In general, IC50 refers to the point on the concentration scale where inhibition reaches its midpoint. A high value points to lower potency. A word on the EC50: it is the concentration at which the effect is half-maximal. A lower EC50 goes with a more potent agent. A word on the ED50: it is the dose that gives a 50% effect, or the effect in half of the subjects. Read a low ED50 as greater potency.
